From patent US10946074B2, “GLP-1 derivatives and uses thereof” (Novo Nordisk A/S, priority 2016, dated 2021) come the findings set out here.

In the test the target is T1, human GLP-1 receptor (Homo sapiens, UniProt P43220).
T1 construct: expressed in transfected cells; host or cells: membranes of BHK cells (parent BHKTS13), clone FCW467-12A
Put plainly: GLP-1 receptor binding, competitive binding assay with 125I-GLP-1 on isolated membranes (SPA).

[1] abbreviates: GLP-1 receptor binding High HSA IC50 (nM), high HSA (2.0% (w/v) final assay concentration).

The structures appear in SMILES notation. Starred links: 1 amine or outer side, 2 acyl side, 3 side chain; linkers in the order of their positions; H or OH if unused. Residues, ends and D or L forms follow the SMILES beside them. Groups on a side chain read outwards from the residue. *: point of attachment. Decanoyl(10-O(3-COOH-Ph)) = O=C(O)c1cccc(OCCCCCCCCCC(=O)*)c1; γGlu = O=C(O)[C@H](CCC(=O)[*:2])N[*:1]; AEEA = NCCOCCOCC(=O)O

T1 sequence (P43220 24-463): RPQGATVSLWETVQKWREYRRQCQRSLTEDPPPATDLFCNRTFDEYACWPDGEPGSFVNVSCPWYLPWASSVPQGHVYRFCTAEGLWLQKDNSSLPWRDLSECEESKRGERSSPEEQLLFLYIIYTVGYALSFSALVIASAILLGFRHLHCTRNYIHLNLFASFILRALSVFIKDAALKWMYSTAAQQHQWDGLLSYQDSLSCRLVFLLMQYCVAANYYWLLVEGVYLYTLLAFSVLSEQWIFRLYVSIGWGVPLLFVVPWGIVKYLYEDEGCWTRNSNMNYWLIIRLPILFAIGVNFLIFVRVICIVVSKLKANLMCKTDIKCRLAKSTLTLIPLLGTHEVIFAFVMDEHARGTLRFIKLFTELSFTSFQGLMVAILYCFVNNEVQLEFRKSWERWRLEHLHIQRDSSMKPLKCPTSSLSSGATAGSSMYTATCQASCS
Procedure: The receptor binding is reported as the concentration at which half of the labelled ligand is displaced from the receptor, the IC50 value.
Buffer 1 consisted of 20 mM Na-HEPES plus 10 mM EDTA and pH was adjusted to 7.4. Buffer 2 consisted of 20 mM Na-HEPES plus 0.1 mM EDTA and pH was adjusted to 7.4. Assay buffer consisted of 50 mM HEPES supplemented with 5 mM EGTA, 5 mM MgCl2, 0.005% w/v Tween 20 and pH was adjusted to 7.4. An 8% albumin stock consisted of HSA dissolved at 8% (w/v) in assay buffer. An 0.02% albumin stock consisted of HSA dissolved at 0.02% (w/v) in assay buffer.
To make a membrane preparation the cells were grown to approximately 80% confluence. The cells were washed twice in phosphate-buffered saline and harvested. The cells were pelleted using a brief centrifugation and the cell pellet was kept on ice. The cell pellet was homogenised with ULTRA-THURRAX™ dispersing instrument for 20-30 seconds in a suitable amount of buffer 1 (e.g., 10 ml). The homogenate was centrifuged for 15 minutes. The pellet was re-suspended (homogenised) in 10 ml buffer 2 and centrifuged. This step was repeated once more. The resulting pellet was re-suspended in buffer 2 and the protein concentration was determined. The membranes were aliquoted and stored at minus 80° C.
For the receptor binding assay in the presence of low HSA (0.005% (w/v)) 50 μl of the assay buffer was added to each well of an assay plate. Assay continued with step 3.
For the receptor binding assay in the presence of high HSA (2% (w/v)) 50 μl of the 8% (w/v) albumin stock was added to each well of an assay plate. Assay continued with step 3.
Cell membrane aliquots were thawed and diluted to their working concentration. Fifty μl were added to each well in the assay plate.
WGA SPA beads were suspended in assay buffer at 20 mg/ml. The suspension was diluted to 10 mg/ml in assay buffer just prior to addition to the assay plate. Fifty μl were added to each well in the assay plate.
A 25 μl aliquot was reserved for measuring total counts/well.
The assay plate was incubated for 2 h at 30° C.
The assay plate was centrifuged for 10 min.
The assay plate was read in a Packard TopCount NXT instrument.
Individual replicates were analysed using non-linear regression in GraphPad Prism. IC50 values were calculated by the software and reported in nM. A minimum of two replicates was measured for each sample. The reported values are averages of all of the measured values for each compound.

In the case of `CC[C@H](C)[C@H](NC(=O)[C@H](Cc1ccccc1)NC(=O)[C@H](CCC(=O)O)NC(=O)[C@H](CCCNC(=N)N)NC(=O)[C@H](C)NC(=O)[C@H](C)NC(=O)[C@H](CCC(N)=O)NC(=O)[C@H](CCC(=O)O)NC(=O)[C@H](CCC(=O)O)NC(=O)[C@H](CC(C)C)NC(=O)[C@H](Cc1ccc(O)cc1)NC(=O)[C@H](CO)NC(=O)[C@H](CO)NC(=O)[C@@H](NC(=O)[C@H](CC(=O)O)NC(=O)[C@H](CO)NC(=O)[C@@H](NC(=O)[C@H](Cc1ccccc1)NC(=O)[C@@H](NC(=O)CNC(=O)[C@H](CCC(=O)O)NC(=O)C(C)(C)NC(=O)[C@@H](N)Cc1c[nH]cn1)[C@@H](C)O)[C@@H](C)O)C(C)C)C(=O)N[C@@H](C)C(=O)N[C@@H](Cc1c[nH]c2ccccc12)C(=O)N[C@@H](CC(C)C)C(=O)N[C@H](C(=O)N[C@@H](CCCNC(=N)N)C(=O)NCC(=O)N[C@@H](CCCCNC(=O)COCCOCCNC(=O)COCCOCCNC(=O)CC[C@H](NC(=O)CCCCCCCCCCOc1ccc(C(=O)O)cc1)C(=O)O)C(=O)N[C@@H](CCCCNC(=O)COCCOCCNC(=O)COCCOCCNC(=O)CC[C@H](NC(=O)CCCCCCCCCCOc1ccc(C(=O)O)cc1)C(=O)O)C(=O)O)C(C)C` [Comparative 8A], the IC50 is, setting by setting: under setting [1], 110 nM; (GLP-1 receptor binding Low HSA IC50 (nM), low HSA (max. 0.001% (w/v) final assay concentration)) 0.245 nM.

For the compound `CC[C@H](C)[C@H](NC(=O)[C@H](Cc1ccccc1)NC(=O)[C@H](CCC(=O)O)NC(=O)[C@H](CCCNC(=N)N)NC(=O)[C@H](C)NC(=O)[C@H](C)NC(=O)[C@H](CCC(N)=O)NC(=O)[C@H](CCC(=O)O)NC(=O)[C@H](CCC(=O)O)NC(=O)[C@H](CC(C)C)NC(=O)[C@H](Cc1ccc(O)cc1)NC(=O)[C@H](CO)NC(=O)[C@H](CO)NC(=O)[C@@H](NC(=O)[C@H](CC(=O)O)NC(=O)[C@H](CO)NC(=O)[C@@H](NC(=O)[C@H](Cc1ccccc1)NC(=O)[C@@H](NC(=O)CNC(=O)[C@H](CCC(=O)O)NC(=O)[C@H](Cc1c[nH]c2ccccc12)NC(=O)[C@@H](N)Cc1c[nH]cn1)[C@@H](C)O)[C@@H](C)O)C(C)C)C(=O)N[C@@H](C)C(=O)N[C@@H](Cc1c[nH]c2ccccc12)C(=O)N[C@@H](CC(C)C)C(=O)N[C@H](C(=O)N[C@@H](CCCNC(=N)N)C(=O)NCC(=O)N[C@@H](CCCCNC(=O)COCCOCCNC(=O)COCCOCCNC(=O)CC[C@H](NC(=O)CCCCCCCCCOc1cccc(C(=O)O)c1)C(=O)O)C(=O)N[C@@H](CCCCNC(=O)COCCOCCNC(=O)COCCOCCNC(=O)CC[C@H](NC(=O)CCCCCCCCCOc1cccc(C(=O)O)c1)C(=O)O)C(=O)O)C(C)C` [Example 1, N{Epsilon-36}-[2-[2-[2-[[2-[2-[2-[[(4S)-4-carboxy-4-[10-(3-carboxyphenoxy)decanoylamino]butanoyl]amino]ethoxy]ethoxy]acetyl]amino]ethoxy]ethoxy]acetyl],N{Epsilon-37}-[2-[2-[2-[[2-[2-[2-[[(4S)-4-carboxy-4-[10-(3-carboxyphenoxy)decanoylamino]butanoyl]amino]ethoxy]ethoxy]acetyl]amino]ethoxy]ethoxy]acetyl]-[Trp8,Glu22,Arg26,Arg34,Lys36,Lys37]-GLP-1-(7-37)-peptide] (H-HWEGTFTSDVSSYLEEQAAREFIAWLVRGK([AEEA-AEEA-γGlu-Decanoyl(10-O(3-COOH-Ph))])K([AEEA-AEEA-γGlu-Decanoyl(10-O(3-COOH-Ph))])-OH), the IC50 under setting [1] came to 410 nM. This counts as sub-micromolar.

Usually IC50 stands for the concentration that inhibits the measured activity by half.
